From patent US8735425B2, “Tetrahydroisoquinoline derivative” (Daiichi Sankyo Company, Limited, priority 2008, dated 2014)

Legend:
DGAT1 enzyme = target: T1, DGAT1 enzyme (Homo sapiens, UniProt O75907); experiment: DGAT1 inhibitory activity test; format: biochemical; details: test compound concentration of 0.05 μg/ml; read-out: Inhibitory Rate
T1 construct: made in house
T1 sequence (O75907 1-488): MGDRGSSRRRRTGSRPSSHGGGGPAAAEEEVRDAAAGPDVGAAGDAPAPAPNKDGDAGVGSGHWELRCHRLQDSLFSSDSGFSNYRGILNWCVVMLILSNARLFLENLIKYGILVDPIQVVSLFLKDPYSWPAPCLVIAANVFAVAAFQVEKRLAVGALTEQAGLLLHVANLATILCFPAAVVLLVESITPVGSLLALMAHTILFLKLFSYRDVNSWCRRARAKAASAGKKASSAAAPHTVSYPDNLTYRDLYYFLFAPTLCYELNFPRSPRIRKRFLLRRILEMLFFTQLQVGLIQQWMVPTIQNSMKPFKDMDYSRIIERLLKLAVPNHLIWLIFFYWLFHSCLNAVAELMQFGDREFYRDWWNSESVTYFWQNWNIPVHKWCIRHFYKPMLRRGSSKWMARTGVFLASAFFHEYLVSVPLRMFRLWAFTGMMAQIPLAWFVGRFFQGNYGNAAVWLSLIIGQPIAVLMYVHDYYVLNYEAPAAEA
Protocol: DGAT1 enzyme was prepared and stored according to the method described in US2007/0249620.
(2) DGAT1 Inhibitory Activity Test
A reaction solution having the following composition was incubated at room temperature (23° C.) for 30 minutes: 175 mM Tris-HCl (pH 8.0), 8 mM MgCl2, 1 mg/ml BSA, 0.3 mM 1,2-dioleoyl-sn-glycerol (10-fold concentration of EtOH solution, 10% added), 10 μM [^14C]-oleoyl-CoA (approximately 50 mCi/mmol), 0.5% Triton X-100, the DGAT1 enzyme (10 μg) obtained in Test Example 1(1), and a test compound or vehicle (DMSO/MeOH, 7:3 solution, 5% added), […] in total. A reaction stop solution ([…] consisting of isopropanol/1-heptane/water (80:20:2, v/v/v) was added to the reaction solution and stirred. Subsequently, water (30 μl) and 1-heptane (100 μl) were added thereto and stirred. The 1-heptane layer (50 μl) was spotted onto a TLC plate and developed with a developing solvent consisting of 1-hexane/diethyl ether/acetic acid (85:15:1, v/v/v). The radioactivity of the triglyceride fraction was quantified using BAS2000 Bio Image Analyzer (FUJIFILM) and compared with the control. The inhibitory activity of the test compound was calculated according to the formula shown below. In this context, the radioactivity at no reaction (0 minute incubation) was used as background. Inhibitory Rate=100−[(Radioactivity of sample supplemented with test compound)−(Background)]/[(Radioactivity of control)−(Background)]×100

Male C57BL/6N mice = experiment: Triglyceride absorption suppression after fat loading (in vivo DGAT1 inhibitory effect); details: Mus musculus, po; dose of 10 mg/kg or lower, orally administered, mice fasted overnight, plasma triglyceride after fat loading; read-out: Triglyceride absorption suppressive activity
Protocol: The DGAT1 enzyme is important for the digestion and absorption of triglycerides, and the inhibition of DGAT1 in the small intestine suppresses the absorption of triglycerides. The in vivo activity of its DGAT1 inhibitory effect was evaluated with the suppressed absorption of triglycerides after fat loading as an index. Male C57BL/6N mice (7-12 weeks old, body weight: 17-25 g, Charles River Laboratories Japan Inc.) fasted overnight were assigned to Vehicle group 1, Vehicle group 2, and each test compound group, to which a vehicle (0.5% methylcellulose) or each test compound (1 to 10 mg/kg) suspended in vehicle was orally administered (5 mL/kg). After a given time, a lipoprotein lipase inhibitor (Pluronic-F127: Sigma-Aldrich Corp., 1 g/kg, 20% by weight dissolved in saline) was intraperitoneally administered (5 mL/kg) to each group. Immediately thereafter, distilled water for the Vehicle group 1 or a 20% fat-containing emulation (Intralipid 20%: TERUMO CORP., Japan) for the Vehicle group 2 and the compound groups were orally administered thereto (0.2 mL/mouse). After a given time of 1 to 4 hours after administration, blood was collected from the tail vein or the right ventricle, and plasma was immediately separated and collected. Then, the triglyceride concentration in plasma was measured using a commercially available kit (Triglyceride E-Test Wako: Wako Pure Chemical Industries, Ltd.). In this method, the administration of the lipoprotein lipase inhibitor suppresses the hydrolysis of triglycerides in the blood such that the triglycerides are accumulated in the blood. These triglycerides are derived from two origins: exogenous triglycerides absorbed in the gastrointestinal tract and endogenous triglycerides released from the liver. The triglyceride absorption suppressive activity of each test compound was calculated based on the equation shown below by removing the influence of the endogenous triglycerides. In this context, each test compound was separately confirmed to have no influence on the concentration of the endogenous triglycerides.
Triglyceride absorption suppressive activity (%)=100−[(Triglyceride concentration of each test compound group)−(Triglyceride concentration of Vehicle group 1)]/[(Triglyceride concentration of Vehicle group 2)−(Triglyceride concentration of Vehicle group 1)]×100

SMILES | inhibition at 0.05 µg/mL (DGAT1 enzyme) [%] | inhibition in vivo at up to 10 mg/kg (Male C57BL/6N mice) [%]
O=C(O)C[C@H]1CC[C@H](OC(=O)N2CCc3cc(NC(=O)Nc4ccccc4F)ccc3C2)C1 (relative stereo) [Example 7, trans-6-[3-(2-fluoro-phenyl)-ureido]-3,4-dihydro-1H-isoquinoline-2-carboxylic acid 3-carboxymethyl-cyclopentyl ester] | ≥ 50 | ≥ 60
C[C@H]1C[C@H](CC(=O)O)CC[C@H]1OC(=O)N1CCc2cc(NC(=O)Nc3ccccc3F)ccc2C1 (relative stereo) [Example 15, 6-[3-(2-fluoro-phenyl)-ureido]-3,4-dihydro-1H-isoquinoline-2-carboxylic acid t-4-carboxymethyl-c-2-methyl-r-1-cyclohexyl ester] | ≥ 50 | ≥ 60
C[C@@H]1C[C@H](CC(=O)O)CC[C@H]1OC(=O)N1CCc2cc(NC(=O)Nc3ccccc3F)ccc2C1 (relative stereo) [Example 16, 6-[3-(2-fluoro-phenyl)-ureido]-3,4-dihydro-1H-isoquinoline-2-carboxylic acid t-4-carboxymethyl-t-2-methyl-r-1-cyclohexyl ester] | ≥ 50 | ≥ 60
CCOc1cccc(NC(=O)Nc2ccc3c(c2)CCN(C(=O)O[C@@H]2CC[C@@H](CC(=O)O)C[C@H]2C)C3)c1 (relative stereo) [Example 99, 6-[3-(3-ethoxy-phenyl)-ureido]-3,4-dihydro-1H-isoquinoline-2-carboxylic acid t-4-carboxymethyl-t-2-methyl-r-1-cyclohexyl ester] | ≥ 50 | ≥ 60
CCOc1cccc(NC(=O)Nc2ccc3c(c2)CCN(C(=O)O[C@@H]2CC[C@@H](CC(=O)O)C[C@@H]2C)C3)c1 (relative stereo) [Example 100, 6-[3-(3-ethoxy-phenyl)-ureido]-3,4-dihydro-1H-isoquinoline-2-carboxylic acid t-4-carboxymethyl-c-2-methyl-r-1-cyclohexyl ester] | ≥ 50 | ≥ 60
COc1cccc(NC(=O)Nc2ccc3c(c2)CCN(C(=O)O[C@@H]2CC[C@@H](CC(=O)O)C[C@H]2C)C3)c1 (relative stereo) [Example 101, 6-[3-(3-methoxy-phenyl)-ureido]-3,4-dihydro-1H-isoquinoline-2-carboxylic acid t-4-carboxymethyl-t-2-methyl-r-1-cyclohexyl ester] | ≥ 50 | ≥ 60
O=C(O)C[C@H]1CC[C@H](OC(=O)N2CCc3cc(NC(=O)Nc4ccccc4F)ccc3C2)CC1 [Example 2, trans-6-[3-(2-fluoro-phenyl)-ureido]-3,4-dihydro-1H-isoquinoline-2-carboxylic acid 4-carboxymethyl-cyclohexyl ester] | ≥ 50 | ≥ 60
O=C(O)CC1CCC(NC(=O)N2CCc3cc(NC(=O)Nc4ccccc4F)ccc3C2)CC1 (stereo not shown) [Example 5, [4-({6-[3-(2-fluoro-phenyl)-ureido]-3,4-dihydro-1H-isoquinoline-2-carbonyl}-amino)-cyclohexyl]-acetic acid] | ≥ 50 | ≥ 60
O=C(Nc1ccc2c(c1)CCN(C(=O)O[C@H]1CC[C@H](C(=O)O)CC1)C2)Nc1ccccc1F [Example 8, trans-6-[3-(2-fluoro-phenyl)-ureido]-3,4-dihydro-1H-isoquinoline-2-carboxylic acid 4-carboxy-cyclohexyl ester] | ≥ 50 | ≥ 60
O=C(O)CCC1CCC(OC(=O)N2CCc3cc(NC(=O)Nc4ccccc4F)ccc3C2)CC1 (stereo not shown) [Example 10, 6-[3-(2-fluoro-phenyl)-ureido]-3,4-dihydro-1H-isoquinoline-2-carboxylic acid 4-(2-carboxy-ethyl)-cyclohexyl ester] | ≥ 50 | ≥ 60
O=C(O)C=C1CCC(OC(=O)N2CCc3cc(NC(=O)Nc4ccccc4F)ccc3C2)CC1 (stereo not shown) [Example 11, 6-[3-(2-fluoro-phenyl)-ureido]-3,4-dihydro-1H-isoquinoline-2-carboxylic acid 4-carboxymethylene-cyclohexyl ester] | ≥ 50 | ≥ 60
O=C(O)CC1=CCC(OC(=O)N2CCc3cc(NC(=O)Nc4ccccc4F)ccc3C2)CC1 (stereo not shown) [Example 12, 6-[3-(2-fluoro-phenyl)-ureido]-3,4-dihydro-1H-isoquinoline-2-carboxylic acid 4-carboxymethyl-cyclohex-3-enyl-ester] | ≥ 50 | ≥ 60
CC(C)(C(=O)O)[C@H]1CC[C@H](OC(=O)N2CCc3cc(NC(=O)Nc4ccccc4F)ccc3C2)CC1 [Example 13, trans-6-[3-(2-fluoro-phenyl)-ureido]-3,4-dihydro-1H-isoquinoline-2-carboxylic acid 4-(carboxy-1-methyl-ethyl)-cyclohexyl ester] | ≥ 50 | ≥ 60
O=C(O)CC1CCC(CC(=O)N2CCc3cc(NC(=O)Nc4ccccc4F)ccc3C2)CC1 (stereo not shown) [Example 17, [4-(2-{6-[3-(2-fluoro-phenyl)-ureido]-3,4-dihydro-1H-isoquinolin-2-yl}-2-oxoethyl)-cyclohexyl]-acetic acid] | ≥ 50 | ≥ 60
CCOc1cccc(NC(=O)Nc2ccc3c(c2)CCN(C(=O)O[C@H]2CC[C@H](CC(=O)O)CC2)C3)c1 [Example 20, trans-6-[3-(3-ethoxy-phenyl)-ureido]-3,4-dihydro-1H-isoquinoline-2-carboxylic acid 4-carboxymethyl-cyclohexyl ester] | ≥ 50 | ≥ 60
COc1ccccc1NC(=O)Nc1ccc2c(c1)CCN(C(=O)O[C@H]1CC[C@H](CC(=O)O)CC1)C2 [Example 21, trans-6-[3-(2-methoxy-phenyl)-ureido]-3,4-dihydro-1H-isoquinoline-2-carboxylic acid 4-carboxymethyl-cyclohexyl ester] | ≥ 50 | ≥ 60
O=C(Nc1ccc2c(c1)CCN(C(=O)O[C@H]1CC[C@H](CC(=O)OC[C@H](O)CO)CC1)C2)Nc1ccccc1F [Example 46, trans-6-[3-(2-fluoro-phenyl)-ureido]-3,4-dihydro-1H-isoquinoline-2-carboxylic acid 4-((R)-2,3-dihydroxy-propoxycarbonylmethyl)-cyclohexyl ester] |  | ≥ 60
CC(C)NC(=O)Nc1ccc2c(c1)CCN(C(=O)O[C@H]1CC[C@H](CC(=O)O)CC1)C2 [Example 81, trans-6-(3-isopropyl-ureido)-3,4-dihydro-1H-isoquinoline-2-carboxylic acid 4-carboxymethyl-cyclohexyl ester] |  | ≥ 60
